The target in experiment [1] is T1, Farnesyl pyrophosphate synthase (Homo sapiens, UniProt P14324).
T1 sequence (P14324 whole entry): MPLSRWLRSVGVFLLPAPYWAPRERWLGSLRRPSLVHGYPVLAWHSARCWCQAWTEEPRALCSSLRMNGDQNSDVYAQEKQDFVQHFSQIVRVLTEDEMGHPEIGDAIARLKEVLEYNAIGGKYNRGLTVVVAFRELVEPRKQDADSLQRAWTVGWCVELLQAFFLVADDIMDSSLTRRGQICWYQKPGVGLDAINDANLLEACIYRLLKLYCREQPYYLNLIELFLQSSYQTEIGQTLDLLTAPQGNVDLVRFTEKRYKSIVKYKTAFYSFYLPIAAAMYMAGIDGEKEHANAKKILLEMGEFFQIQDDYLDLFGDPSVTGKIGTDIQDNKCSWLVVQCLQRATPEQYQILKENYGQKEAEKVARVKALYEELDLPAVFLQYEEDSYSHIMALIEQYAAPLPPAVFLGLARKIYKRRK
The experiment in a line: Inhibition of human FPPS.

In experiment [2] the target is T2, Isoprenyl transferase (Streptococcus pneumoniae serotype 4 (strain ATCC BAA-334 / TIGR4), UniProt Q97SR4).
T2 sequence (Q97SR4 whole entry): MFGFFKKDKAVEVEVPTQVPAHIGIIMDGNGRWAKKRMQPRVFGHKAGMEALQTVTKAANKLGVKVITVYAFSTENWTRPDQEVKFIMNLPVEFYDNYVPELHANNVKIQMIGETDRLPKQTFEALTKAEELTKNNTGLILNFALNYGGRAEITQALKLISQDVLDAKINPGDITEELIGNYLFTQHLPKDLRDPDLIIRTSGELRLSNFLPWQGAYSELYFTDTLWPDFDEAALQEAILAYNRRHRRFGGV
The experiment is described as follows: Inhibition of Streptococcus pneumoniae UPPS.

The values below come from BindingDB's records for doi:10.1016/j.bmcl.2008.02.009 (Novartis Institutes For Biomedical Research, 2008).

For the compound `O=C1CC(Cc2ccccc2)NC(=O)C1C(=O)Nc1ccc(N2CCCCC2)cc1` (stereo unspecified), the IC50 in experiment [1] is more than 50000 nM; in experiment [2] it was 110 nM.
`O=C1CC(Cc2ccccc2)NC(=O)C1C(=O)Nc1ccc(Oc2ccccc2)cc1` (stereo unspecified): the results for the concentration for half-maximal inhibition (IC50) in experiment [1] and in experiment [2] were more than 50000 nM and 110 nM, respectively.
In turn, `O=C1CC(Cc2ccccc2)NC(=O)C1C(=O)Nc1ccc(Nc2ccccc2)cc1` (stereo unspecified) showed a half-inhibitory concentration (IC50) in experiment [2] of 1100 nM.
Same read-out and setting: the result for `O=C(Nc1ccc(-c2ccccc2)cc1)C1C(=O)OC(Cc2ccccc2)C1=O` (stereo unspecified) reads 1100 nM.
